Results: ChEMBL document CHEMBL3991601, “The target landscape of clinical kinase drugs” (Science, 2017)
Active and inactive are the calls of the source.

Legend:
[1] = biological target: S-adenosylmethionine synthase isoform type-2 (Homo sapiens, UniProt P31153)
[2] = biological target: Cyclin-dependent kinase 12 (Homo sapiens, UniProt Q9NYV4)
[3] = biological target: Casein kinase I isoform epsilon (Homo sapiens, UniProt P49674)
[4] = biological target: Tyrosine-protein kinase SYK (Homo sapiens, UniProt P43405)
[5] = biological target: Cyclin-dependent kinase 7 (Homo sapiens, UniProt P50613)
Chain of Cyclin-dependent kinase 7 (P50613 whole entry): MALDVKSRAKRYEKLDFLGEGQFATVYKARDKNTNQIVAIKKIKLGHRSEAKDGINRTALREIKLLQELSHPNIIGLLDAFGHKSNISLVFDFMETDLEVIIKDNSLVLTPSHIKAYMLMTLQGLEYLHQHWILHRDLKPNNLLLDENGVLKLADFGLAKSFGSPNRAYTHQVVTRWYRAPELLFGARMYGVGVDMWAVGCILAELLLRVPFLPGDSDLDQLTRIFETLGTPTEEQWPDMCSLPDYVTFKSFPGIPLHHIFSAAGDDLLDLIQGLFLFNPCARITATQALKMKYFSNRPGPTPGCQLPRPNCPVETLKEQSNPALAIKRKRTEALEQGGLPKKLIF

[6] = biological target: T1, Serine/threonine-protein kinase Nek1 (Homo sapiens, UniProt Q96PY6)
T1 sequence (Q96PY6 whole entry): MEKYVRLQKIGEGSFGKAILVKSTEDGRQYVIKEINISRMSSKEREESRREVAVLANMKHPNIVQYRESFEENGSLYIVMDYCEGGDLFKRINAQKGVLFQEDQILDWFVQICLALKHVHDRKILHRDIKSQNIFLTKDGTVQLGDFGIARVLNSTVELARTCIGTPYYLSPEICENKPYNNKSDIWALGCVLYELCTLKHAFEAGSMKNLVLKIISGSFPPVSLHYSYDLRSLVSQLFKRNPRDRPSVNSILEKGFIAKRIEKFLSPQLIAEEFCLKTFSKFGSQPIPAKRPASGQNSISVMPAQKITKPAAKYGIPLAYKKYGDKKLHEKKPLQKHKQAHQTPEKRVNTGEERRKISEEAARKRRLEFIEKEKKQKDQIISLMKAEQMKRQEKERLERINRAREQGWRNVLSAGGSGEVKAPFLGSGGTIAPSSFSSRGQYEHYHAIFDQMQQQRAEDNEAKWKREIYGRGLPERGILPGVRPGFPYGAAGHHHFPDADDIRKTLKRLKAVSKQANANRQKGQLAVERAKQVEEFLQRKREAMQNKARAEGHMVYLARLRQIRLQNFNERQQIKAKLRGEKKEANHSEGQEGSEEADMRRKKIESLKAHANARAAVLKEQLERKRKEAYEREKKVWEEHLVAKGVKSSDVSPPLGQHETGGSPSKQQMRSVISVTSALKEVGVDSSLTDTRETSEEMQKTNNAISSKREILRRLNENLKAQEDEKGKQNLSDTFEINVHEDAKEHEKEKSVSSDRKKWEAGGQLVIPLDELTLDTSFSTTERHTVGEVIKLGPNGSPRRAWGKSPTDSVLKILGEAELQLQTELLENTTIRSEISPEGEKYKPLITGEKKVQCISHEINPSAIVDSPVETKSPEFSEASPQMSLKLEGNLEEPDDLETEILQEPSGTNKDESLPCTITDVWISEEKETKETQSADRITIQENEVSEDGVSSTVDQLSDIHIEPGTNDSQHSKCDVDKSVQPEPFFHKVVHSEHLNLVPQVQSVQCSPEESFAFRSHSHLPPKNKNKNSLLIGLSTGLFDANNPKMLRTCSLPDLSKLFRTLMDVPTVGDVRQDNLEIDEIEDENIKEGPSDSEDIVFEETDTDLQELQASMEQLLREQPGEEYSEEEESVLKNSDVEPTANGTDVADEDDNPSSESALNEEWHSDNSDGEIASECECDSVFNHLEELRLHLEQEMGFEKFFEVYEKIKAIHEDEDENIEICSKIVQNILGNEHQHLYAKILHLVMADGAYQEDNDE

[7] = biological target: Serine/threonine-protein kinase B-raf (Homo sapiens, UniProt P15056)
Chain of Serine/threonine-protein kinase B-raf (P15056 whole entry): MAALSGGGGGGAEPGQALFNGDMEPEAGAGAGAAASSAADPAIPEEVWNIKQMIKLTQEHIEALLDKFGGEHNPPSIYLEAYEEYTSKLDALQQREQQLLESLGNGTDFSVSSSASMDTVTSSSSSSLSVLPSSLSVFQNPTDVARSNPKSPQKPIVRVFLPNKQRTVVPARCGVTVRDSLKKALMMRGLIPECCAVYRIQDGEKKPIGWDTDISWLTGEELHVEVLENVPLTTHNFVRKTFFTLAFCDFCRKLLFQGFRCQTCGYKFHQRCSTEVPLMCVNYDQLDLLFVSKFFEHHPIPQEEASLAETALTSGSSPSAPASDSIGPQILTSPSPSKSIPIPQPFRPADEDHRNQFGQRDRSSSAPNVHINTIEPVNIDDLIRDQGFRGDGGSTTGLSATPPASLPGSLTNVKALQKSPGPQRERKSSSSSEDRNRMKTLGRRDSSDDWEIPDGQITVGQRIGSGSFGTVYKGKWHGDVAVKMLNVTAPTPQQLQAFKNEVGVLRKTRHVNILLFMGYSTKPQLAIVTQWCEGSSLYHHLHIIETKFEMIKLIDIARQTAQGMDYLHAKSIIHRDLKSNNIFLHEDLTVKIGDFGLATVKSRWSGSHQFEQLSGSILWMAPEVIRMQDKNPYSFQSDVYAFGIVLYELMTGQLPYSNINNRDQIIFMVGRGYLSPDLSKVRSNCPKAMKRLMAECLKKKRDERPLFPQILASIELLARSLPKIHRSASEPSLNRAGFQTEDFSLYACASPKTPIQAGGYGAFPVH

[8] = biological target: Inosine-5'-monophosphate dehydrogenase 2 (Homo sapiens, UniProt P12268)
[9] = biological target: T2, Glycogen phosphorylase, liver form (Homo sapiens, UniProt P06737); type: subcellular, K-562, COLO 205, SK-N-BE(2) and MV-4-11, Cell lysate; conditions: read-out: Kd apparent
T2 sequence (P06737 whole entry): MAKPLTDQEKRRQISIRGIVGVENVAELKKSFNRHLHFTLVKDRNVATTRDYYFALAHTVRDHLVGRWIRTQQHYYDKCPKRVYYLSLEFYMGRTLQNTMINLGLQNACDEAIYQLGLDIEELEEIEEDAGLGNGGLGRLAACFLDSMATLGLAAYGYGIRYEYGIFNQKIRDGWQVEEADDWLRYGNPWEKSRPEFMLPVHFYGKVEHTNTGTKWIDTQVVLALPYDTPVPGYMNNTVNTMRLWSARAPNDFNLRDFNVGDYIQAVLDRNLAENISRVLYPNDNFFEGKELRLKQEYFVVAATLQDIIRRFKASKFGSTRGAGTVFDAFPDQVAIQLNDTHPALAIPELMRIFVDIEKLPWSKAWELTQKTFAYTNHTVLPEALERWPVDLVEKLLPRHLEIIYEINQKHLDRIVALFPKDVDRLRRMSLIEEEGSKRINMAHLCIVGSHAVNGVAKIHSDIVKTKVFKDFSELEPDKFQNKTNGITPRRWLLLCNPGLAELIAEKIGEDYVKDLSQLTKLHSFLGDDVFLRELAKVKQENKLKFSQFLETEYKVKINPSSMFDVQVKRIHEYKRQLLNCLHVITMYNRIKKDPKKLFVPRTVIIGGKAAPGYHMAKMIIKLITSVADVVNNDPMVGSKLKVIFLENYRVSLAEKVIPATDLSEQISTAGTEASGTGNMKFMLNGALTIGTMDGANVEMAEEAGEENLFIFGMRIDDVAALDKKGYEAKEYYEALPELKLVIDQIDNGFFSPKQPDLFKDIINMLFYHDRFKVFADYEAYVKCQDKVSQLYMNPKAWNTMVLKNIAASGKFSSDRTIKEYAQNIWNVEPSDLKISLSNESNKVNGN

Actin-related protein 2 = Actin-related protein 2 (Homo sapiens, UniProt P61160)
[10] = biological target: Protein-tyrosine kinase 6 (Homo sapiens, UniProt Q13882)
Chain of Protein-tyrosine kinase 6 (Q13882 whole entry): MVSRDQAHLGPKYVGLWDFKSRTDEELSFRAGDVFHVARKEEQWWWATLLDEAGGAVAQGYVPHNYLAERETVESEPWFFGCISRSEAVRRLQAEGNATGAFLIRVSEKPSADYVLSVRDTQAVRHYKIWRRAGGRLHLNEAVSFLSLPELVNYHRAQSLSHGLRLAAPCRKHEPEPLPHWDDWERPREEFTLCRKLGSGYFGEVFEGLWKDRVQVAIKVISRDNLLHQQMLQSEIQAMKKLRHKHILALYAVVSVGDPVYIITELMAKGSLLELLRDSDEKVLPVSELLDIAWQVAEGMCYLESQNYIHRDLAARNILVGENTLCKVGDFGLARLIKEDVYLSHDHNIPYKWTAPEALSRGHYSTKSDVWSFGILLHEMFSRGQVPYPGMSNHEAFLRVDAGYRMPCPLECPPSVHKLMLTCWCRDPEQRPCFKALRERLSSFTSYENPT

[11] = biological target: DnaJ homolog subfamily A member 1 (Homo sapiens, UniProt P31689)
Chain of DnaJ homolog subfamily A member 1 (P31689 whole entry): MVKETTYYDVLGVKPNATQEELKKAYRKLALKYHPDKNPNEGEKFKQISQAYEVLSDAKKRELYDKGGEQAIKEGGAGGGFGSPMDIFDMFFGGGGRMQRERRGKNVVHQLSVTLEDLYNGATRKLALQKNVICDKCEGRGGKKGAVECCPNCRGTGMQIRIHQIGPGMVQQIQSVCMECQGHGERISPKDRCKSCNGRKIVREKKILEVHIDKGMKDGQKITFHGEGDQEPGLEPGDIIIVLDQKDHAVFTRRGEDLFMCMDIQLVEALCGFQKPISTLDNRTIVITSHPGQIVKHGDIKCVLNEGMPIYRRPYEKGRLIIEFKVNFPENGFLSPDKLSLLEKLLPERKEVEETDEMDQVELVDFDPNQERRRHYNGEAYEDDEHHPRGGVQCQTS

Aurora kinase B = Aurora kinase B (Homo sapiens, UniProt Q96GD4)
Chain of Aurora kinase B (Q96GD4 whole entry): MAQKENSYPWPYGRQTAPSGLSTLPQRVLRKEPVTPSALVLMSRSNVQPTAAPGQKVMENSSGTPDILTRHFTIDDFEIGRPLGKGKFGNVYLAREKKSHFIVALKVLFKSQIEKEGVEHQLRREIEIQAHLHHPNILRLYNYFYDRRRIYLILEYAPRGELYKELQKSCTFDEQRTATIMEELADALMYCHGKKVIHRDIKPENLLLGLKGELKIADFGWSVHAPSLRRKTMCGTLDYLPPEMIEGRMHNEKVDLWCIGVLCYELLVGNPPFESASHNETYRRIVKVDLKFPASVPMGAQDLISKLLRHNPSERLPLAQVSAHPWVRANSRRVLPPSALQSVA

Myosin-10 = Myosin-10 (Homo sapiens, UniProt P35580)
Also: in the data inactive means no Kd found up to 30 µM.

Chain of Cyclin-dependent kinase 12 (Q9NYV4 whole entry, canonical isoform): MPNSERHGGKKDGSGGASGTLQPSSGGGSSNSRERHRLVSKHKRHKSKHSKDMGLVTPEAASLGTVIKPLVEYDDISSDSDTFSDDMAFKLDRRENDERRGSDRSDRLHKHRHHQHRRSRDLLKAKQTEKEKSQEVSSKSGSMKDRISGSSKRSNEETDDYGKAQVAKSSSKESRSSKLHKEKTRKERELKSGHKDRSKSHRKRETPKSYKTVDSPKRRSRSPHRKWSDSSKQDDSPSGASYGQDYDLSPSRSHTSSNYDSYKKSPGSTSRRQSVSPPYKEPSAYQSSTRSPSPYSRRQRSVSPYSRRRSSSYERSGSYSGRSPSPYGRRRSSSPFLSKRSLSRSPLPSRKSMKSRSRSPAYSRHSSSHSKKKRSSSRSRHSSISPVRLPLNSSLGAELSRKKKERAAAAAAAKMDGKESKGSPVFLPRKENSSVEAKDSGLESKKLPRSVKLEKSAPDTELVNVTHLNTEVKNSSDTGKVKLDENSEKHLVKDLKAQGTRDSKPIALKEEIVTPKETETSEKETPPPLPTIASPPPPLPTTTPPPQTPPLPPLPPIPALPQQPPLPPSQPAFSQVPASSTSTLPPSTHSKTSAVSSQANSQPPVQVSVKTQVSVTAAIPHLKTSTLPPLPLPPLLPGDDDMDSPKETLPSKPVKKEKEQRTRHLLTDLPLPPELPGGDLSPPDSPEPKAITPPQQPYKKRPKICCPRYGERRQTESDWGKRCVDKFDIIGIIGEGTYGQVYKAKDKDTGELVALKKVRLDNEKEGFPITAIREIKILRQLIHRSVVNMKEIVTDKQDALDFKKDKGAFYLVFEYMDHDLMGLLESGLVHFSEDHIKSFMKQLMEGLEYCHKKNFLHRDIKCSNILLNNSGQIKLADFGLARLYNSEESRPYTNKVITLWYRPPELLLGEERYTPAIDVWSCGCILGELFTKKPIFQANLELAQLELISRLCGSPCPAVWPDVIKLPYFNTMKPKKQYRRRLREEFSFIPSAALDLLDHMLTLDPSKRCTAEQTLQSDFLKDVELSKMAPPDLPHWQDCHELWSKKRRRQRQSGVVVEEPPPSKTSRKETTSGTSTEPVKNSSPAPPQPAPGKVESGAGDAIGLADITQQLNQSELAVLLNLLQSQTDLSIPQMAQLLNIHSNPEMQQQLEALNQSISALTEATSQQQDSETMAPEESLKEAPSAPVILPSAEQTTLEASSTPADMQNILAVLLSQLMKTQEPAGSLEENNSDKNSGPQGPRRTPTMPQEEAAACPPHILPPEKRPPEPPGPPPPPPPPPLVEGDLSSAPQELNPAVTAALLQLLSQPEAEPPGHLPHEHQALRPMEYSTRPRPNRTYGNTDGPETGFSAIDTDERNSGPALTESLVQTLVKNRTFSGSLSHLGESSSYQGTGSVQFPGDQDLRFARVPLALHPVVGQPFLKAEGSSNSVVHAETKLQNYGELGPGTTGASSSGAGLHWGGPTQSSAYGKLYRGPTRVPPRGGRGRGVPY
Chain of S-adenosylmethionine synthase isoform type-2 (P31153 whole entry, canonical isoform): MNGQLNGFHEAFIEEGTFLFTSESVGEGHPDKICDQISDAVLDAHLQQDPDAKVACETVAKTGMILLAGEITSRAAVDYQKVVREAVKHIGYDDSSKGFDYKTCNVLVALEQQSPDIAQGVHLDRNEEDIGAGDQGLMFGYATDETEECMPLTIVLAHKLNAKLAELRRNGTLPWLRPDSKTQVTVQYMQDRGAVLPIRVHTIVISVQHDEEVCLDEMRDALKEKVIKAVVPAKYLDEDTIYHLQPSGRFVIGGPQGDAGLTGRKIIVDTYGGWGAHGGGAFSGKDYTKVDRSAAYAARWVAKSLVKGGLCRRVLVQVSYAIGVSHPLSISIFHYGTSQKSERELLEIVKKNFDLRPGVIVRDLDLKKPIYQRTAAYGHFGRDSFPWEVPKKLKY
Chain of Casein kinase I isoform epsilon (P49674 whole entry, canonical isoform): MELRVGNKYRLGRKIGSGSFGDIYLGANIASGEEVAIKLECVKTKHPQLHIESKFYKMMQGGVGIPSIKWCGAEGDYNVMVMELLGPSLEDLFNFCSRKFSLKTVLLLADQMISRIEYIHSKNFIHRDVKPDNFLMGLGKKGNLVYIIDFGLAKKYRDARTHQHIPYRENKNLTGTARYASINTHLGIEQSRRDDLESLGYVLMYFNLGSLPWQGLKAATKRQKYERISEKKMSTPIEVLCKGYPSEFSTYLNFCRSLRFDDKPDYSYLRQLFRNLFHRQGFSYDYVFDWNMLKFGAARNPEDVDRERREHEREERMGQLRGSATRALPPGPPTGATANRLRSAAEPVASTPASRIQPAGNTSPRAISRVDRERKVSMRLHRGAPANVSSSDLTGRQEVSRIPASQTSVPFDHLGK

Row | Kd [1] | Kd [2] | Kd [3] | Kd [4] | Kd [5] | Kd [6] | Kd [7] | Kd [8] | Kd [9] | Kd (Actin-related protein 2) | Kd [10] | Kd [11] | Kd (Aurora kinase B) | SMILES | Kd (Myosin-10)
1 | > 30 µM (inactive) | > 30 µM (inactive) | > 30 µM (inactive) | > 30 µM (inactive) | > 30 µM (inactive) | > 30 µM (inactive) | > 30 µM (inactive) | > 30 µM (inactive) | > 30 µM (inactive) | > 30 µM (inactive) | > 30 µM (inactive) | > 30 µM (inactive) | 1.15 µM (active) | C[C@H]1CNCCCN1S(=O)(=O)c1cccc2cncc(F)c12 | 
2 | > 30 µM (inactive) | > 30 µM (inactive) | > 30 µM (inactive) | > 30 µM (inactive) | > 30 µM (inactive) | > 30 µM (inactive) | > 30 µM (inactive) | > 30 µM (inactive) | > 30 µM (inactive) | > 30 µM (inactive) | > 30 µM (inactive) | > 30 µM (inactive) | > 30 µM (inactive) | Cc1nc(NC(=O)N2CCC[C@H]2C(N)=O)sc1-c1ccnc(C(C)(C)C(F)(F)F)c1 [ALPELISIB] | 
3 | > 30 µM (inactive) | > 30 µM (inactive) | > 30 µM (inactive) | > 30 µM (inactive) | > 30 µM (inactive) | > 30 µM (inactive) | > 30 µM (inactive) | > 30 µM (inactive) | > 30 µM (inactive) | > 30 µM (inactive) | > 30 µM (inactive) | > 30 µM (inactive) | > 30 µM (inactive) | C=CC(=O)Nc1cc2c(Nc3ccc(F)c(Cl)c3)ncnc2cc1C#CC(C)(C)N1CCN(C)CC1 [AV-412 FREE BASE] | 
4 | > 30 µM (inactive) | > 30 µM (inactive) |  |  |  |  |  | > 30 µM (inactive) | > 30 µM (inactive) | > 30 µM (inactive) |  | > 30 µM (inactive) |  | CNC(=O)c1ccccc1Sc1ccc2c(/C=C/c3ccccn3)n[nH]c2c1 [AXITINIB] | > 30 µM (inactive)
5 | > 30 µM (inactive) | > 30 µM (inactive) | > 30 µM (inactive) | > 30 µM (inactive) | > 30 µM (inactive) | > 30 µM (inactive) | > 30 µM (inactive) | > 30 µM (inactive) | > 30 µM (inactive) | > 30 µM (inactive) | > 30 µM (inactive) | > 30 µM (inactive) | > 30 µM (inactive) | Cn1cnc2c(F)c(Nc3ccc(Br)cc3F)c(C(=O)NOCCO)cc21 [BINIMETINIB] | 
6 | > 30 µM (inactive) | > 30 µM (inactive) | > 30 µM (inactive) | > 30 µM (inactive) | > 30 µM (inactive) | > 30 µM (inactive) | > 30 µM (inactive) | > 30 µM (inactive) | > 30 µM (inactive) | > 30 µM (inactive) | > 30 µM (inactive) | > 30 µM (inactive) | > 30 µM (inactive) | CCn1c(C(=O)N(C2CC2)C2CC2)cc2c3c(ncn3C)c(Nc3cc(C)n(C)n3)nc21 [BMS-911543] | 
7 | > 30 µM (inactive) | > 30 µM (inactive) | > 30 µM (inactive) | > 30 µM (inactive) | > 30 µM (inactive) | > 30 µM (inactive) | > 30 µM (inactive) | > 30 µM (inactive) | > 30 µM (inactive) | > 30 µM (inactive) | > 30 µM (inactive) | > 30 µM (inactive) | > 30 µM (inactive) | Cc1nc2cc(-n3ncc(C(=O)c4cc5ccccc5[nH]4)c3N)ccc2[nH]1 [FGFR INHIBITOR DEBIO 1347] | 
8 | > 30 µM (inactive) | > 30 µM (inactive) | 7.9 µM (active) | > 30 µM (inactive) | > 30 µM (inactive) | > 30 µM (inactive) | > 30 µM (inactive) | > 30 µM (inactive) | > 30 µM (inactive) | > 30 µM (inactive) | > 30 µM (inactive) | > 30 µM (inactive) | > 30 µM (inactive) | Cc1cccc(-c2nn3c(c2-c2ccnc4ccc(C(N)=O)cc24)CCC3)n1 [GALUNISERTIB] | 
9 | > 30 µM (inactive) | > 30 µM (inactive) | > 30 µM (inactive) | > 30 µM (inactive) | > 30 µM (inactive) | > 30 µM (inactive) | > 30 µM (inactive) | > 30 µM (inactive) | > 30 µM (inactive) | > 30 µM (inactive) | > 30 µM (inactive) | > 30 µM (inactive) | > 30 µM (inactive) | Cn1cc(-c2cnc3ccc4ccc(CS(=O)(=O)NCc5ccccn5)cc4c(=O)c3c2)cn1 [MK-8033] | 
10 | > 30 µM (inactive) | > 30 µM (inactive) | > 30 µM (inactive) | > 30 µM (inactive) | > 30 µM (inactive) | > 30 µM (inactive) | > 30 µM (inactive) | > 30 µM (inactive) | > 30 µM (inactive) | > 30 µM (inactive) | > 30 µM (inactive) | > 30 µM (inactive) | > 30 µM (inactive) | O=c1[nH]ccc2cc(OC3CCNCC3)ccc12 [SAR-407899 FREE BASE] | 
11 | > 30 µM (inactive) | > 30 µM (inactive) | > 30 µM (inactive) | > 30 µM (inactive) | > 30 µM (inactive) | > 30 µM (inactive) | > 30 µM (inactive) | > 30 µM (inactive) | > 30 µM (inactive) | > 30 µM (inactive) | > 30 µM (inactive) | > 30 µM (inactive) | > 30 µM (inactive) | O=C1NC(=O)[C@@H](c2cn3c4c(cccc24)CCC3)[C@@H]1c1c[nH]c2ccccc12 [TIVANTINIB] | 
12 | > 30 µM (inactive) | > 30 µM (inactive) | > 30 µM (inactive) | > 30 µM (inactive) | 1.44 µM (active) | > 30 µM (inactive) | > 30 µM (inactive) | > 30 µM (inactive) | > 30 µM (inactive) | > 30 µM (inactive) | > 30 µM (inactive) | > 30 µM (inactive) | 0.004 µM (active) | CC(C)c1cc(CNc2nc(Nc3cc(C4CC4)[nH]n3)cc(N3CCN(C)CC3)n2)on1 [XL-228] | 

Row | SMILES | Kd [1] | Kd [2] | Kd [3] | Kd [4] | Kd [5] | Kd [6] | Kd [7] | Kd [8] | Kd [9] | Kd (Actin-related protein 2) | Kd [10] | Kd [11] | Kd (Aurora kinase B) | Kd (Myosin-10)
13 | Cn1cc(C2=C(c3cn(C4CCN(Cc5ccccn5)CC4)c4ccccc34)C(=O)NC2=O)c2ccccc21 [ENZASTAURIN] | > 30 µM (inactive) | > 30 µM (inactive) |  |  |  |  |  | > 30 µM (inactive) | > 30 µM (inactive) | > 30 µM (inactive) |  | > 30 µM (inactive) |  | > 30 µM (inactive)
